Assay results as given in patent publication US3988453A, “Novel phenothiazines as neuroleptics” (Roussel-UCLAF, priority 1974, dated 1976).
Counter-ions that a name gives are not always drawn. Like-named read-outs stand apart in the source and are kept apart here.

Key:
[1] = test system: stereotypes provoked by apomorphine; experiment: antagonism to stereotypes provoked by apomorphine; type: in vivo, male rats; details: rat, oral, read-out: ED50 (DE50), apomorphine sterotypes
Description: A. antagonism to stereotypes provoked by apomorphine
This test was conducted on groups of 5 male rats in individual cages with the procedure of Janssen et al [Arzn. Forsch., Vol. 15 (1965), p. 104-117 and Vol. 17 (1967), p. 841-854]. Each rat orally received the test compound and then, at variable times, an intraveinous injection of 1.5 mg of apomorphine hydrochloride in the veins of the penis. The times of injection were 1 hour, 24 hours, 2 days, 3 days or 4 days after the test product administration and the rats were studied during 1 minute after 5,10 and 15 minutes after the injection and the stereotype movements of the jaws spheres were evaluated for their degree of intensity on a scale for 0 to 3 /Boissier et al, Therapie, Vol. 25 (1970), p. 939-949/. The ED50 was determined at the maximum of the effect for the time considered that is to say the dose reducing the symptoms by 50% in the treated animals as compared to control animals and the results are reported in Table I.

[2] = test system: toxicity provoked by amphetamine; experiment: antagonism to toxicity provoked by amphetamine; type: in vivo, male mice; details: mouse, oral, read-out: ED50 (DE50), amphetaminic toxicity
Description: B. antagonism to toxicity provoked by amphetamine
This test was effect on groups of 10 male mice grouped in crystallizers with a 20 cm diameter and a 9 cm height closed with a grilled lid. Each mouse orally received a determined dose of the test product and at different times a single intraperitoneal dose of dexamphetamine sulfate. The injection was effected 1 hour, 24 hours or 2,3,4 or 7 days after the administration of the test compound and the mortality for each group was determined 24 hours after the injection. The ED50, the dose at which the toxicity of dexamphetamine sulphate was reduced by 50%, was determined and the results are reported in Table I.

[3] = test system: histamine hydrochloride lethality; experiment: antihistaminic activity (protection against lethal histamine dose); type: in vivo, guinea pigs; details: guinea pig, oral 10 mg/kg
Description: E. antihistaminic Activity
This test was effected on guinea pigs which received orally a single dose of 10 mg/kg of the test product and then a intraveinous injection of 0.8 mg/kg of histamine hydrochloride 1 hour or 24 hours thereafter. This histamine dose is the minimum lethal dose for 100% of the animals within about 3 minutes and after 10 minutes, any surviving animals were considered to be protected. Each product was rated to see if 50% of the animals were alive at this dose and the values of Table IV show at least 50% protected by + and less than 50% protected by 0.

[4] = test system: stereotypes provoked by amphetamine; experiment: antagonism to stereotypes provoked by amphetamine; type: in vivo, rats; details: for % protection: rat
Description: C. antagonism to stereotypes provoked by amphetamine
This test with the product of Example 2 was effected on groups of 5 rats with the rats individually held in cages and after the rats received intraperitoneally or subcutaneously an aqueous suspension of the product at a dose of 10 mg/kg, each rat received intraperitoneally at different times a single injection of 8 mg/kg of dexamphetamine sulfate. The second injections were made 1 hour or 1,3 or 7 days after the first injection and the results were determined by the procedure of Halliwel et al [Brit. J. Pharmacol., Vol. 23 (1964), p. 330-350].

[5] = test system: vomitting provoked by apomorphine; experiment: antagonism against vomitting provoked by apomorphine; type: in vivo, dogs; details: dog
Description: D. antagonism against vomitting provoked by apomorphine
This test was effected on 3 dogs on whom the number of vomits provoked by a single subcutaneous injection of 0.1 mg/kg of apomorphine hydrochloride 8 days before this test. Each dog received subcutaneously an injection of an aqueous suspension of 0.3 mg/kg or 0.8 mg/kg of the product of Example 2 and an injection of 0.1 mg/kg of apomorphine hydrochloride 30 minutes, 7 days, 14 days, 21 days, 28 days, 35 days and 42 days thereafter.

acute toxicity = details: mouse, in vivo, Swiss mice, mortality at 72 hours
Description: The acute toxicity of the product of Example 2 was determined on groups of 10 mice of the Swiss strain weighing about 20 g receiving increasing doses orally or intraperitoneally of the test product. The mortality was determined 72 hours after the product administration.

[6] = apomorphine 1 h after test product
[7] = apomorphine 24 h after test product
[8] = dexamphetamine 1 h after test product
[9] = dexamphetamine 24 h after test product
[10] = 48 h, apomorphine 2 d after test product
[11] = 72 h, apomorphine 3 d after test product
[12] = 96 h, apomorphine 4 d after test product
[13] = 48 h, dexamphetamine 2 d after test product
[14] = 72 h, dexamphetamine 3 d after test product
[15] = 96 h, dexamphetamine 4 d after test product
[16] = 168 h, dexamphetamine 7 d after test product

Structure (SMILES): c1ccc2c(c1)Sc1ccccc1N2CCCN1CCC(c2c[nH]c3ccccc23)CC1 [Example 1, 4-(3'-indolyl)-1-[γ-(10"-phenothiazinyl)-propyl]-piperidine.HCl]
- ED50 [1, 6]: > 50 mg/kg
- ED50 [1, 7]: 35 mg/kg
- ED50 [2, 8]: < 10 mg/kg
- ED50 [2, 9]: < 10 mg/kg
- Protection against histamine ([3]; after 1 hour): 0 (less than 50% protected)
- Protection against histamine ([3]; after 24 hours): + (at least 50% protected)

Structure (SMILES): FC(F)(F)c1ccc2c(c1)N(CCCN1CCC(c3c[nH]c4ccccc34)CC1)c1ccccc1S2 [Example 2, 4-(3'-indolyl)-1-[γ-(2"-trifluoromethyl-10"-phenothiazinyl)-propyl]-piperidine hydrochloride]
- ED50 [1, 10]: 18 mg/kg
- ED50 [1, 11]: 17 mg/kg
- ED50 [1, 12]: 33 mg/kg
- ED50 [1, 6]: > 50 mg/kg
- ED50 [1, 7]: < 10 mg/kg
- ED50 [2, 13]: < 10 mg/kg
- ED50 [2, 14]: 50 mg/kg
- ED50 [2, 8]: < 10 mg/kg
- ED50 [2, 9]: < 10 mg/kg
- antagonistic effect against the stereotypes provoked by amphetamine (in words) ([4]; injected intraperitoneally or subcutaneously): important antagonistic effect of prolonged duration
- % protection ([4]; intraperitoneal 10 mg/kg, after 1 hour): 39%
- % protection ([4]; intraperitoneal 10 mg/kg, after 1 day): 77%
- % protection ([4]; intraperitoneal 10 mg/kg, after 3 days): 68%
- % protection ([4]; intraperitoneal 10 mg/kg, after 7 days): 61%
- % protection ([4]; subcutaneous 10 mg/kg, after 1 hour): 17%
- % protection ([4]; subcutaneous 10 mg/kg, after 1 day): 84%
- % protection ([4]; subcutaneous 10 mg/kg, after 3 days): 60%
- % protection ([4]; subcutaneous 10 mg/kg, after 7 days): 14%
- neuroleptic activity (Table III, in words) ([5]; subcutaneous): important prolonged neuroleptic activity
- % of protection ([5]; subcutaneous 0.3 mg/kg, after 30 min): 24%
- % of protection ([5]; subcutaneous 0.3 mg/kg, after 7 d): 86%
- % of protection ([5]; subcutaneous 0.3 mg/kg, after 14 d): 57%
- % of protection ([5]; subcutaneous 0.3 mg/kg, after 21 d): 29%
- % of protection ([5]; subcutaneous 0.3 mg/kg, after 28 d): 10%
- % of protection ([5]; subcutaneous 0.8 mg/kg, after 30 min): 0%
- % of protection ([5]; subcutaneous 0.8 mg/kg, after 7 d): 100%
- % of protection ([5]; subcutaneous 0.8 mg/kg, after 14 d): 95%
- % of protection ([5]; subcutaneous 0.8 mg/kg, after 21 d): 84%
- % of protection ([5]; subcutaneous 0.8 mg/kg, after 28 d): 79%
- % of protection ([5]; subcutaneous 0.8 mg/kg, after 35 d): 42%
- % of protection ([5]; subcutaneous 0.8 mg/kg, after 42 d): 21%
- Protection against histamine ([3]; after 1 hour): + (at least 50% protected)
- Protection against histamine ([3]; after 24 hours): 0 (less than 50% protected)
- LD50 at 72 h (acute toxicity; ip, intraperitoneal): ~300 mg/kg
- LD50 at 72 h (acute toxicity; oral): > 1600 mg/kg

Structure (SMILES): COc1ccc2[nH]cc(C3CCN(CCCN4c5ccccc5Sc5ccc(C(F)(F)F)cc54)CC3)c2c1 [Example 3, 4-(5'-methoxy-3'-indolyl)-1-[γ-(2"-trifluoromethyl-10"-phenothiazinyl)-propyl]-piperidine hydrochloride]
- ED50 [1, 10]: < 10 mg/kg
- ED50 [1, 11]: 12 mg/kg
- ED50 [1, 12]: 20 mg/kg
- ED50 [1, 6]: > 50 mg/kg
- ED50 [1, 7]: < 10 mg/kg
- ED50 [2, 13]: < 10 mg/kg
- ED50 [2, 14]: < 10 mg/kg
- ED50 [2, 15]: < 10 mg/kg
- ED50 [2, 8]: < 10 mg/kg
- ED50 [2, 9]: < 10 mg/kg

Structure (SMILES): COc1ccc2c(C3CCN(CCCN4c5ccccc5Sc5ccc(C(F)(F)F)cc54)CC3)c(C)[nH]c2c1 [Example 4, 4-(2'-methyl-6'-methoxy-3'-indolyl)-1-[γ-(2"-trifluoromethyl-10"-phenothiazinyl)-propyl]-piperidine hydrochloride]
- ED50 [1, 10]: 9 mg/kg
- ED50 [1, 11]: 16 mg/kg
- ED50 [1, 12]: 25 mg/kg
- ED50 [1, 6]: > 50 mg/kg
- ED50 [1, 7]: 9 mg/kg
- ED50 [2, 13]: < 10 mg/kg
- ED50 [2, 14]: 9 mg/kg
- ED50 [2, 15]: 9 mg/kg
- ED50 [2, 16]: 50 mg/kg
- ED50 [2, 8]: 10 mg/kg
- ED50 [2, 9]: < 10 mg/kg

Structure (SMILES): Clc1ccc2c(c1)N(CCCN1CCC(c3c[nH]c4ccccc34)CC1)c1ccccc1S2 [Example 5, 4-(3'-indolyl)-1'-[γ-(2"-chloro-10"-phenothiazinyl)-propyl]-piperidine hydrochloride]
- ED50 [1, 10]: 12 mg/kg
- ED50 [1, 11]: 27 mg/kg
- ED50 [1, 6]: > 50 mg/kg
- ED50 [1, 7]: < 10 mg/kg
- ED50 [2, 13]: < 10 mg/kg
- ED50 [2, 14]: 10 mg/kg
- ED50 [2, 15]: 17 mg/kg
- ED50 [2, 8]: 16 mg/kg
- ED50 [2, 9]: < 10 mg/kg
- Protection against histamine ([3]; after 1 hour): + (at least 50% protected)
- Protection against histamine ([3]; after 24 hours): + (at least 50% protected)

Structure (SMILES): COc1ccc2c(c1)N(CCCN1CCC(c3c[nH]c4ccccc34)CC1)c1ccccc1S2 [Example 6, 4-(3'-indolyl)-1-[γ-(2"-methoxy-10"-phenothiazinyl)-propyl]-piperidine hydrochloride]
- ED50 [1, 10]: 45 mg/kg
- ED50 [1, 6]: > 50 mg/kg
- ED50 [1, 7]: < 10 mg/kg
- ED50 [2, 13]: 10 mg/kg
- ED50 [2, 8]: < 10 mg/kg
- ED50 [2, 9]: < 10 mg/kg
- Protection against histamine ([3]; after 1 hour): 0 (less than 50% protected)
- Protection against histamine ([3]; after 24 hours): + (at least 50% protected)

Structure (SMILES): CC(CN1CCC(c2c[nH]c3ccccc23)CC1)CN1c2ccccc2Sc2ccc(C(F)(F)F)cc21 (stereo not drawn) [Example 7, 4-(3'-indolyl)-1-[β-methyl-γ-(2"-trifluoromethyl-10"-phenothiazinyl)-propyl]-piperidine hydrochloride]
- ED50 [1, 10]: 10 mg/kg
- ED50 [1, 11]: < 10 mg/kg
- ED50 [1, 12]: 12 mg/kg
- ED50 [1, 6]: > 20 mg/kg
- ED50 [1, 7]: 10 mg/kg
- ED50 [2, 13]: < 10 mg/kg
- ED50 [2, 14]: 13 mg/kg
- ED50 [2, 15]: < 10 mg/kg
- ED50 [2, 16]: 19 mg/kg
- ED50 [2, 8]: > 20 mg/kg
- ED50 [2, 9]: < 10 mg/kg
- Protection against histamine ([3]; after 1 hour): 0 (less than 50% protected)
- Protection against histamine ([3]; after 24 hours): + (at least 50% protected)

Structure (SMILES): COc1ccc2c(c1)N(CC(C)CN1CCC(c3c[nH]c4ccccc34)CC1)c1ccccc1S2 (stereo not drawn) [Example 8, 4-(3'-indolyl)-1-[γ-(2"-methoxy-10"-phenothiazinyl)-β-methylpropyl]-piperidine hydrochloride]
- ED50 [1, 10]: 12 mg/kg
- ED50 [1, 11]: 30 mg/kg
- ED50 [1, 6]: > 50 mg/kg
- ED50 [1, 7]: < 10 mg/kg
- ED50 [2, 13]: < 10 mg/kg
- ED50 [2, 14]: 18 mg/kg
- ED50 [2, 8]: < 10 mg/kg
- ED50 [2, 9]: < 10 mg/kg
- Protection against histamine ([3]; after 1 hour): 0 (less than 50% protected)
- Protection against histamine ([3]; after 24 hours): + (at least 50% protected)
